Assay results: US20070117770A1, “Human ribosomal DNA (rDNA) and ribosomal RNA (rRNA) nucleic acids and uses thereof” (Cylene Pharmaceuticals, Inc., priority 2005, published 2007)
*1 amine or outer side, *2 acyl side, *3 side chain or, on linkers, in order; H or OH if unused. Where a SMILES comes first, the peptide text is derived from it. Bridges are numbered along the chain shown (N, C = ends). Roman numbers before positions name the chains, in order. [ ]: non-standard residue; d: D form. Actinocin(9to1) = Cc1c2oc3c(C)ccc(C(=O)[*:1])c3nc-2c(C(=O)[*:2])c(N)c1=O; NMeV = CN[C@H](C(=O)O)C(C)C; Sar = CNCC(=O)O

Key:
[1] = test system: 28S and 18S rRNA (total RNA from HCT116 cells); assay: Competition for rRNA binding with compound A-1 (agarose gel electrophoresis); set-up: species or system human; details: 10 uM compound A-1; increasing amount of competitor (Actinomycin D 10, 100, 200 uM; pUC18 0.25-4 ug)
Method: Compounds that bound to the 28S rRNA were subjected to competition for rRNA binding with Actinomycin D, Se2SAP (FIG. 3A of US20040110820 published on Jun. 10, 2004) and double-stranded DNA (dsDNA) in confirmatory studies. In such assays, 1 ug of total RNA from HCT116 cells was incubated with 10 uM compound A-1 in a volume of 10 uL in the absence/ presence of (a) increasing amount of Actinomycin D (10, 100 and 200 uM) for 15 min at room temperature, (b) increasing amount of Se2SAP (see figure) for 30 min at room temperature, or (c) increasing amount of pUC18 (0.25, 0.5, 1, 2 and 4 ug) for 30 min at room temperature, followed by agarose gel electrophoresis.

[2] = molecular target: T1, nucleolin/nucleic acid ligand (Homo sapiens, UniProt P19338); assay: EMSA, interference with nucleolin/nucleic acid ligand interactions (ligands derived from human ribosomal DNA); format: binding
T1 construct: without the N-terminal acidic stretches domain
T1 sequence (P19338 284-710 limits assumed): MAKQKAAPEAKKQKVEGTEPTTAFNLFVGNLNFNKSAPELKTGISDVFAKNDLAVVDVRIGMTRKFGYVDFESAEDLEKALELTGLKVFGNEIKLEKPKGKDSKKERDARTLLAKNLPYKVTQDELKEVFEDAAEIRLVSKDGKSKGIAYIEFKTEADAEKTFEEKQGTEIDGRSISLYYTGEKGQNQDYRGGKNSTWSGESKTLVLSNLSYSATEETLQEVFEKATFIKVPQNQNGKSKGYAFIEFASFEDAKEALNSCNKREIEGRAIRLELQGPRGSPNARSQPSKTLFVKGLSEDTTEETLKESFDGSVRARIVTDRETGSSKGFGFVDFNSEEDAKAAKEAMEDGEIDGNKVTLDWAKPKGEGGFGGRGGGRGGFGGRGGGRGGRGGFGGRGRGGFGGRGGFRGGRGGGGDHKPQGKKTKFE
Method: The following assays assessed effects of compounds on interactions between nucleolin and nucleic acid ligands capable of forming quadruplex (QP) and hairpin (HP) secondary structures. Nucleic acid ligands tested were a cMyc QP DNA having nucleotide sequence 5′-[…]-3′ (SEQ ID NO: 176) and a HP pre-rRNA region to which nucleolin binds, having the sequence 5′-[…]-3′ (SEQ ID NO: 177). In the assays, recombinant nucleolin (˜250 nM), which was fused to maltose binding protein and had the sequence under accession number NM_005381 without the N-terminal acidic stretches domain, was incubated with each of the two ^32P-labeled nucleic acid ligands (10 or 250 nM). Nucleolin and the nucleic acid ligand were incubated in the presence or absence of a test compound of Formula A-1, B-1, C-6 or C-7 in an incubation buffer (12.5 mM Tris, pH 7.6, 60 mM KCl, 1 mM MgCl2, 0.1 mM EDTA, 1 mM DTT, 5% glycerol, 0.1 mg/ml BSA) for 30 minutes at room temperature. Structures for A-1 and B-1 are shown above and structures for C-6 and C-7 are shown hereafter: [drawing 17] The resulting complexes were separated on a 6% DNA retardation gel using 0.5× TBE with 20 mM KCl as a running buffer (i.e., electrophoresis mobility shift assay (EMSA)).
The assay also was conducted using nucleic acid ligands derived from human ribosomal DNA. Sequences of these nucleic acids are shown in the preceding example. […]

With `Cc1c2oc3c(C)ccc(C(=O)N[C@@H]4C(=O)N[C@H](C(C)C)C(=O)N5CCC[C@H]5C(=O)N(C)CC(=O)N(C)[C@@H](C(C)C)C(=O)O[C@@H]4C)c3nc-2c(C(=O)N[C@@H]2C(=O)N[C@H](C(C)C)C(=O)N3CCC[C@H]3C(=O)N(C)CC(=O)N(C)[C@@H](C(C)C)C(=O)O[C@@H]2C)c(N)c1=O` [Actinomycin D, reference compound] (I: T[dV]P[Sar][NMeV] / II: T[dV]P[Sar][NMeV]; ester I:1-I:C, II:1-II:C; linker I:N-II:N via Actinocin(9to1)) the “competition with compound A-1 for rRNA binding” value [1] was “failed to compete with compound A-1 for rRNA” and the “interference with nucleolin/nucleic acid ligand interactions” value [2] was “but not Actinomycin D, interfered with nucleolin/nucleic acid ligand interactions”.
